Legend:
[1] = tested on: ALOMY; assay: Pre-emergence action against ALOMY, 1280 g/ha; type: in vivo, Alopecurus myosuroides; conditions: visual scoring after about 3 weeks vs untreated controls, 100% = plants have died, 0% = like control plants
In short: (§1)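 Sandy loam pots, seeds covered with soil; aqueous WP/EC spray on covering soil, 0.5% additive, 600 L/ha. Greenhouse growth, good conditions. Readout: visual % activity at ~3 weeks (0% = like control, 100% = dead).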

[2] = tested on: DIGSA; assay: Pre-emergence action against DIGSA, 1280 g/ha; type: in vivo, Digitaria sanguinalis; conditions: visual scoring after about 3 weeks vs untreated controls, 100% = plants have died, 0% = like control plants
In short: as §1

[3] = tested on: ECHCG; assay: Pre-emergence action against ECHCG, 1280 g/ha; type: in vivo, Echinochloa crus-galli; conditions: visual scoring after about 3 weeks vs untreated controls, 100% = plants have died, 0% = like control plants
In short: as §1

[4] = tested on: LOLRI; assay: Pre-emergence action against LOLRI, 1280 g/ha; type: in vivo, Lolium rigidum; conditions: visual scoring after about 3 weeks vs untreated controls, 100% = plants have died, 0% = like control plants
In short: as §1

[5] = tested on: POAAN; assay: Pre-emergence action against POAAN, 1280 g/ha; type: in vivo, Poa annua; conditions: visual scoring after about 3 weeks vs untreated controls, 100% = plants have died, 0% = like control plants
In short: as §1

[6] = tested on: SETVI; assay: Pre-emergence action against SETVI, 1280 g/ha; type: in vivo, Setaria viridis; conditions: visual scoring after about 3 weeks vs untreated controls, 100% = plants have died, 0% = like control plants
In short: as §1

[7] = tested on: ABUTH; assay: Pre-emergence action against ABUTH, 1280 g/ha; type: in vivo, Abutilon theophrasti; conditions: scored visually after about 3 weeks vs untreated controls (100% = plants have died)
Excerpt: 1. Pre-Emergence Herbicidal Effect and Crop Plant Compatibility a) Seeds of mono- and dicotyledonous weed plants are placed in plastic pots in sandy loam soil (doubly sown with one species each of mono- or dicotyledonous weed plants per pot) and covered with soil. The compounds of the invention, formulated in the form of wettable powders (WP) or as emulsion concentrates (EC), are then applied onto the surface of the covering soil as aqueous suspension or emulsion with addition of 0.5% additive at a water application rate equivalent to 600 litres per hectare. After the treatment, the pots are placed in a greenhouse and kept under good growth conditions for the trial plants. After about 3 weeks, the effect of the preparations is scored visually in comparison with untreated controls as percentages. For example, 100% activity=the plants have died, 0% activity=like control plants. 1. Pre-Emergence Effectiveness Tables 1 to 12 below show the effects of selected compounds of the general formula (I) according to Tables 1 and 2 on various harmful plants and at an application rate corresponding to 1280 g/ha, which were obtained by the experimental procedure mentioned above.

[8] = tested on: AMARE; assay: Pre-emergence action against AMARE, 1280 g/ha; type: in vivo, Amaranthus retroflexus; conditions: scored visually after about 3 weeks vs untreated controls (100% = plants have died)
In short: as §1

[9] = tested on: KCHSC; assay: Pre-emergence action against KCHSC, 1280 g/ha; type: in vivo, Bassia scoparia; conditions: scored visually after about 3 weeks vs untreated controls (100% = plants have died)
In short: as §1

[10] = tested on: MATIN; assay: Pre-emergence action against MATIN, 1280 g/ha; type: in vivo, Tripleurospermum inodorum (Matricaria inodora); conditions: scored visually after about 3 weeks vs untreated controls (100% = plants have died)
In short: as §1

[11] = tested on: STEME; assay: Pre-emergence action against STEME, 1280 g/ha; type: in vivo, Stellaria media; conditions: scored visually after about 3 weeks vs untreated controls (100% = plants have died)
In short: as §1

[12] = tested on: VERPE; assay: Pre-emergence action against VERPE, 1280 g/ha; type: in vivo, Veronica persica; conditions: scored visually after about 3 weeks vs untreated controls (100% = plants have died)
In short: as §1

[13] = tested on: ALOMY; assay: Post-emergence action against ALOMY, 1.28 kg/ha; type: in vivo, Alopecurus myosuroides; conditions: dosage 1280 g/ha, visual rating about 3 weeks after treatment vs untreated controls
In short: (§2)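 Visual rating against untreated plants about 3 weeks after spraying gives % activity, where 0% means like controls and 100% means plants died. Plants were treated post-emergence at the one-leaf stage with compound formulated as wettable powder or emulsion concentrate, applied at 600 L water/ha plus 0.5% additive.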

[14] = tested on: DIGSA; assay: Post-emergence action against DIGSA, 1.28 kg/ha; type: in vivo, Digitaria sanguinalis; conditions: dosage 1280 g/ha, visual rating about 3 weeks after treatment vs untreated controls
In short: as §2

[15] = tested on: ECHCG; assay: Post-emergence action against ECHCG, 1.28 kg/ha; type: in vivo, Echinochloa crus-galli; conditions: dosage 1280 g/ha, visual rating about 3 weeks after treatment vs untreated controls
In short: as §2

[16] = tested on: POAAN; assay: Post-emergence action against POAAN, 1.28 kg/ha; type: in vivo, Poa annua; conditions: dosage 1280 g/ha, visual rating about 3 weeks after treatment vs untreated controls
In short: as §2

[17] = tested on: ABUTH; assay: Post-emergence action against ABUTH, 1.28 kg/ha; type: in vivo, Abutilon theophrasti; conditions: dosage 1280 g/ha, visual rating about 3 weeks after treatment vs untreated controls (100% = plants died)
In short: as §2

[18] = tested on: AMARE; assay: Post-emergence action against AMARE, 1.28 kg/ha; type: in vivo, Amaranthus retroflexus; conditions: dosage 1280 g/ha, visual rating about 3 weeks after treatment vs untreated controls (100% = plants died)
In short: as §2

[19] = tested on: MATIN; assay: Post-emergence action against MATIN, 1.28 kg/ha; type: in vivo, Tripleurospermum inodorum (Matricaria inodora); conditions: dosage 1280 g/ha, visual rating about 3 weeks after treatment vs untreated controls (100% = plants died)
In short: as §2

[20] = tested on: STEME; assay: Post-emergence action against STEME, 1.28 kg/ha; type: in vivo, Stellaria media; conditions: dosage 1280 g/ha, visual rating about 3 weeks after treatment vs untreated controls (100% = plants died)
In short: as §2

[21] = tested on: VERPE; assay: Post-emergence action against VERPE, 1.28 kg/ha; type: in vivo, Veronica persica; conditions: dosage 1280 g/ha, visual rating about 3 weeks after treatment vs untreated controls (100% = plants died)
In short: as §2

[22] = tested on: SETVI; assay: Post-emergence action against SETVI, 1.28 kg/ha; type: in vivo, Setaria viridis; conditions: dosage 1280 g/ha, visual rating about 3 weeks after treatment vs untreated controls
In short: as §2

[23] = tested on: KCHSC; assay: Post-emergence action against KCHSC, 1.28 kg/ha; type: in vivo, Bassia scoparia; conditions: dosage 1280 g/ha, visual rating about 3 weeks after treatment vs untreated controls (100% = plants died)
In short: as §2

What does the source list for `O=C(COc1nn(-c2ccccc2F)c(-c2ccc(F)nc2)c1Br)NS(=O)(=O)CC(F)(F)F` [Example X-003]?
Pre-emergence action against ALOMY [1]: 90%; Pre-emergence action against DIGSA [2]: 100%; Pre-emergence action against ECHCG [3]: 100%; Pre-emergence action against LOLRI [4]: 100%; Pre-emergence action against POAAN [5]: 100%; Pre-emergence action against SETVI [6]: 100%; Pre-emergence action against ABUTH [7]: 90%; Pre-emergence action against AMARE [8]: 100%; Pre-emergence action against KCHSC [9]: 90%; Pre-emergence action against MATIN [10]: 100%; Pre-emergence action against STEME [11]: 100%; Pre-emergence action against VERPE [12]: 100%; Post-emergence action against ALOMY [13]: 100%; Post-emergence action against DIGSA [14]: 100%; Post-emergence action against ECHCG [15]: 90%; Post-emergence action against POAAN [16]: 100%; Post-emergence action against ABUTH [17]: 90%; Post-emergence action against AMARE [18]: 90%; Post-emergence action against MATIN [19]: 100%; Post-emergence action against STEME [20]: 90%; Post-emergence action against VERPE [21]: 90%

Which results are given for `O=C(O)C1CCCN1C(=O)COc1nn(-c2ccccc2F)c(-c2cncc(F)c2)c1Br` (centres unmarked) [Example X-039]?
Pre-emergence action against ALOMY [1]: 90%; Pre-emergence action against DIGSA [2]: 90%; Pre-emergence action against ECHCG [3]: 90%; Pre-emergence action against LOLRI [4]: 90%; Pre-emergence action against POAAN [5]: 100%; Pre-emergence action against SETVI [6]: 90%; Pre-emergence action against ABUTH [7]: 90%; Pre-emergence action against AMARE [8]: 100%; Pre-emergence action against KCHSC [9]: 100%; Pre-emergence action against MATIN [10]: 100%; Pre-emergence action against STEME [11]: 90%; Pre-emergence action against VERPE [12]: 100%; Post-emergence action against ALOMY [13]: 90%; Post-emergence action against DIGSA [14]: 90%; Post-emergence action against ECHCG [15]: 90%; Post-emergence action against POAAN [16]: 100%; Post-emergence action against SETVI [22]: 100%; Post-emergence action against ABUTH [17]: 100%; Post-emergence action against AMARE [18]: 90%; Post-emergence action against KCHSC [23]: 90%; Post-emergence action against MATIN [19]: 100%; Post-emergence action against STEME [20]: 100%; Post-emergence action against VERPE [21]: 100%

Which results are given for `C=CCNC(=O)COc1nn(-c2ccccc2F)c(-c2cncnc2)c1Br` [IX-001]?
Pre-emergence action against DIGSA [2]: 100%; Pre-emergence action against ECHCG [3]: 90%; Pre-emergence action against LOLRI [4]: 100%; Pre-emergence action against POAAN [5]: 100%; Pre-emergence action against SETVI [6]: 100%; Pre-emergence action against ABUTH [7]: 100%; Pre-emergence action against AMARE [8]: 100%; Pre-emergence action against KCHSC [9]: 100%; Pre-emergence action against MATIN [10]: 100%; Pre-emergence action against STEME [11]: 100%; Pre-emergence action against VERPE [12]: 100%; Post-emergence action against DIGSA [14]: 100%; Post-emergence action against ECHCG [15]: 90%; Post-emergence action against ABUTH [17]: 90%; Post-emergence action against KCHSC [23]: 90%; Post-emergence action against MATIN [19]: 90%; Post-emergence action against STEME [20]: 100%; Post-emergence action against VERPE [21]: 100%

Source: US12180187B2, “1-phenyl-5-azinylpyrazolyl-3-oxyalkyl acids and their use for controlling unwanted plant growth” (BAYER AKTIENGESELLSCHAFT, priority 2019, dated 2024)
